Assay [1] has as its target T1, cPLA2 (Homo sapiens, UniProt P47712).
T1 sequence (P47712 1-749): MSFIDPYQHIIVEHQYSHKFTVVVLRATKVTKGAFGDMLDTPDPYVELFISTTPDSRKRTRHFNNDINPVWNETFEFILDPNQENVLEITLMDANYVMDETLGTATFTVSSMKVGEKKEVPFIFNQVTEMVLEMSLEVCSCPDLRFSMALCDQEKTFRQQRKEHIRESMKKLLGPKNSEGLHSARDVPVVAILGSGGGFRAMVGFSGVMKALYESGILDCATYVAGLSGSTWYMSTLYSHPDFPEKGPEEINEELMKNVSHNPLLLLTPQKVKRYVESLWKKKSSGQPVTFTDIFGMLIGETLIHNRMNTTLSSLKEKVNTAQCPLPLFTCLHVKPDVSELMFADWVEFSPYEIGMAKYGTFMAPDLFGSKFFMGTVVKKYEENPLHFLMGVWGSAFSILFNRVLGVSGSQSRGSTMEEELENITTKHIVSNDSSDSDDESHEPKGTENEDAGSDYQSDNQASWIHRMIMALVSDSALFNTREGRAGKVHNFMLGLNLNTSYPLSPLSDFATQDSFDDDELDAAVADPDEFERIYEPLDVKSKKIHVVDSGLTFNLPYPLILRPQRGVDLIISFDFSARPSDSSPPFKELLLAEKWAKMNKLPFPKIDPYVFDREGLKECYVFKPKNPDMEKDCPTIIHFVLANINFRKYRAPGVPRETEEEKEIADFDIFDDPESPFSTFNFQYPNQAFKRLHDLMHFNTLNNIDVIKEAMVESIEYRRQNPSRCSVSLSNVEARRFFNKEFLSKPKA
Nature of the assay: cPLA2 Inhibitory activity (release of radiolabelled fatty acid from liposomes). The format is biochemical. As to conditions: 50 mM HEPES pH 7.4, 1 mM CaCl2, 2.5 μM radio-labeled phosphatidylcholine, 15 min at 37° C; read-out: cPLA2 Inhibition Activity IC50. Summed up:
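Liposomes of [14C]-arachidonoyl phosphatidylcholine/dioleoylglycerol (2:1) at 2.5 μM labelled PC in 50 mM HEPES pH 7.4 with 1 mM CaCl2, 2 mM DTT, 150 mM NaCl, 0.1 mg/ml BSA. Compound (0.4–250 μM), 4 ng enzyme, 15 min at 37 °C. Released fatty acid counted by scintillation; IC50 from % of control.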

In assay [2] the test system is Prostaglandin E2 production in human fibroblasts. The assay can be described thus: Inhibition of Production of Prostaglandin E2 in Human Fibroblasts (IL-1 stimulated). As to conditions: Fibroblast, stimulation with IL-1, read-out: Inhibitory activity Against the Production of Prostaglandin E2 in Human Fibroblasts IC50. The format is cell-based. As for the experimental part:
Experiment 2 Inhibition of Production of Prostaglandin E2 in Human Fibroblasts
From this viewpoint, the compounds of the present invention were tested for the effect on the production of prostaglandin E2 by human fibroblasts under the stimulation with IL-1 according to the method of J. M. Dayer et al (CACHECTIN/TUMOR NECROSIS FACTOR STIMULATES COLLAGENASE AND PROSTAGLANDIN E2 PRODUCTION BY HUMAN SYNOVIAL CELLS AND DERMAL FIBROBLASTS; J. M. Dayer, B. Beutlerm and A. Cerami, J. Exp. Med., 162,2163-2168, 1985).

What is called IC50 is the concentration that inhibits the measured activity by half. As for `O=C1NC(=O)/C(=C/c2ccc(C(=O)NC[C@@H]3C[C@H](OCc4ccc(-c5ccccc5)cc4)CN3C(=O)c3ccc(Cn4sccc4=O)cc3)cc2)S1` [Compound H-9], the IC50 came to 2 µM in assay [1] and 9.6 µM in assay [2].

For the compound `O=C1NC(=O)/C(=C/c2ccc(C(=O)NC[C@@H]3C[C@H](OC(c4ccccc4)c4ccccc4)CN3C(=O)c3ccc(CN4CCCC4=O)cc3)cc2)S1` [Compound H-10], the IC50 in assay [1] came to 10 µM; in assay [2] it was 2.4 µM.

Consider `N#CC(=S)Nc1ccc(C(=O)N2C[C@@H](OC(c3ccccc3)c3ccccc3)C[C@H]2CNC(=O)c2ccc(/C=C3\SC(=O)NC3=O)cc2)cc1` [Compound H-11], for which the values for the IC50 in assay [1] and in assay [2] were 4.3 µM and 8.5 µM, respectively.

Turning to `CC(=O)Oc1ccc(O)cc1CCCCCCC(=O)N1C[C@@H](OC(c2ccccc2)c2ccccc2)C[C@H]1CNC(=O)c1ccc(/C=C2\SC(=O)NC2=O)cc1` [Compound H-16], the IC50 was found to be 4.3 µM in assay [1] and 1.9 µM in assay [2].

In the case of `O=C1C=CC(=O)C(CCCCCCC(=O)N2C[C@@H](OC(c3ccccc3)c3ccccc3)C[C@H]2CNC(=O)c2ccc(/C=C3\SC(=O)NC3=O)cc2)=C1` [Compound H-17], the IC50 in assay [1] is 4.9 µM; in assay [2], 7 µM.

`O=C1NC(=O)/C(=C/c2ccc(C(=O)NC[C@@H]3C[C@H](OCc4ccc(F)cc4F)CN3C(=O)CCCCCCC3=CC(=O)c4ccccc4C3=O)cc2)S1` [Compound H-18]: the IC50 in assay [1] is 11 µM; in assay [2], 1.5 µM.

For the compound `O=C1NC(=O)C(=Cc2ccc(C(=O)NC[C@@H]3C[C@H](NC(=O)c4ccc(Cn5sccc5=O)cc4)CN3S(=O)(=O)c3ccc(-c4ccccc4)cc3)cc2)S1` [Compound J-2], the results for the IC50 in assay [1] and in assay [2] were 2.9 µM and 9.7 µM, respectively.

Source of the values: patent publication US5955616A, “Pyrrolidine derivatives having phospholipase A2 inhibitory activity” (Shionogi & Co., Ltd., priority 1995, dated 1999).
